Test results published in US20060128695A1, “Cyclic nucleotide phosphodiesterase inhibitors, preparation and uses” (NEURO3D, priority 2002, published 2006).

Columns and labels:
[1] = tested on: PDE4; test: Selectivity: inhibition of PDE4, radioenzymatic phosphodiesterase assay; type: biochemical, bovine; details: 10 μM test compound; vascular smooth muscle
Method: (§1) A 3 g segment of bovine aortic media cut into pieces with scissors was homogenized with an ultra-turrax then a potter glass/glass homogenizer in 7 volumes by weight of buffer A containing a protease inhibitor cocktail (20 mM Tris-HCl, 0.25 M saccharose, 2 mM magnesium acetate, 1 mM dithiothreitol, 5 mM EGTA, 2000 U/ml aprotinin, 10 mg/l leupeptin and 10 mg/l soya trypsic inhibitor). The homogenizate was centrifuged at 105,000 g for 1 hour. The supernatant was loaded on a DEAE-Sephacel column (15 x 1.6 cm) pre-equilibrated with buffer B (buffer A without the saccharose, EGTA and protease inhibitors). The column was washed until there was no detectable absorption at 280 nm, then eluted with a linear gradient of NaCl (0-0.5 M) in buffer B. 3-ml fractions were collected and enzyme activity was determined under the conditions described hereinbelow to localize the different enzymes PDE1, PDE3, PDE4 and PDE5 which were aliquoted and frozen at −80° C. (Lugnier et al., Biochem. Phamacol., 1986, 35: 1746-1751). PDE2 was prepared from bovine endothelial cells by the same methods (Lugnier and Schini, Biochem. Pharmacol., 1990, 39: 75-84).
(§2) Cyclic nucleotide phosphodiesterase activity was determined by a radioenzymatic method using tritium-labelled cyclic GMP or AMP (1 μM) as substrate (Lugnier et al., 1986). ^3H-labelled adenosine or guanosine monophosphate formed by hydrolysis of the radiolabelled cyclic nucleotide was then converted to ^3H-labelled adenosine or guanosine in a second reaction with […] in excess. The nucleoside formed was separated from the nucleotides by anion exchange chromatography. Nucleoside radioactivity was determined by liquid scintillation counting. Enzymatic incubations were carried out under conditions allowing no more than 15% hydrolysis of the substrate; each point was performed in duplicate.
(§3) The activity of the compounds was evaluated on other phosphodiesterase isoforms, particularly basal state or calmodulin-activated PDEl from vascular smooth muscle, PDE3, PDE4 and PDE5 from vascular smooth muscle.
(§4) The results obtained are presented in Tables 1 and 2 hereinbelow and are expressed as the percentage inhibition of enzymatic activity produced by […] of the test compound.

[2] = molecular target: T1, PDE5 (Bos taurus, UniProt Q28156); test: Selectivity: inhibition of PDE5, radioenzymatic phosphodiesterase assay; type: biochemical, bovine; details: 10 μM test compound; vascular smooth muscle; read-out: PDE5 percentage inhibition at 10 μM
T1 construct: localize the different enzymes PDE1, PDE3, PDE4 and PDE5 which were aliquoted and frozen; from tissue; host or cells: bovine aortic media (vascular smooth muscle)
Method: as §1, §2, §3, §4

[3] = tested on: mice; test: Elevated plus maze test; type: in vivo, Balb/c or Swiss mice; details: oral, 1 hour before the test, all doses tested, recorded over 8 minutes, versus control
Description: This test was validated in the rat by Pellow in 1986 and in the mouse by Lister in 1987. It is based on an aversion to open spaces: the open arms elicit anxiety in the animals while the closed arms represent safety. By recording the frequency of entry into each arm, this test evaluates the anxiolytic effect of a molecule in comparison with a reference compound such as buspirone.
Ten to eleven-week old Balb/c or Swiss mice were used for the test. Mice were randomly divided into a control group (treated with the vehicle) and other groups treated with the test compounds.
The test apparatus was a PVC maze with a plexiglass lid, divided into four equivalent exploration arms (45×10 cm), all interconnected by a small platform (10×10 cm). The apparatus was placed 66 crn above the floor. Two arms were opened and the other two closed with a wall (height: 30 cm).
After administration, the mouse was placed on the platform opposite the closed arm. The number of entries and the time spent in each open arm were recorded over 8 minutes.
The treatment was administered 1 hour before the test. The compounds were given orally at different doses. N=10; *** p<0.005 and **** p<0.001 (versus control; Dunnett test).

[4] = tested on: mice; test: Swim test; type: in vivo, Wistar rats or Swiss mice; details: 3 and 30 mg/kg, 20 minutes before the test, versus control group and 0.3 mg/kg group
Method: This test is based on the induction of alternative behavior in rodents subjected to an acute stress. In this model, the rat or mouse placed in a water-filled cylinder adopts a particular state of immobility. Onset of said immobility is delayed by antidepressants administered acutely or in repeated doses.
Wistar rats or Swiss mice were used. Animals were isolated for one week with a reverse light/dark cycle, then placed in the water-filled cylinder for 6 minutes. The total immobility time was recorded during the last 4 minutes. The treatment was administered 20 minutes before the test. Four groups were used to test three different doses: one control group treated with the vehicle, and one group for the three doses.
N=10; *** p<0.005 (Dunnett test).

[5] = tested on: mice; test: Light/dark test; type: in vivo, Balb/c or Swiss mice; details: mice, 0.3, 3 and 30 mg/kg orally 1 hour before the test, versus controls (p<0.01)
Description: This light/dark test is based on the natural tendency of rodents to prefer a dark environment and thereby evaluates the emotional responses of the animals in a situation of bright light. This procedure is suitable for assessing the state of anxiety elicited by anxiety stimuli (Lister's group, 1990). Mice placed in the apparatus, while showing a preference for the dark zone, nonetheless explore the light zone.
Ten to eleven-week old Balb/c or Swiss mice were used. Mice were randomly divided into a control group (treated with the vehicle) and other groups treated with the test compounds.
The test apparatus consisted of two PVC compartments (20×20×14 cm). with a plexiglass lid. One of the compartments was dark. A 100W light bulb was placed 15 cm above the other compartment, emitting the only light in the room (approximately 4400 lux). An opaque plastic tunnel separated the light and dark compartments.
The animal was placed in the light compartment with its head pointed towards the tunnel. The time spent in the light compartment and the number of entries into the light compartment were recorded for 5 minutes after the first entry into the dark zone. The test compound or the control treatment were administered orally 1 hour before the test.
N=10; ** p<0.01; **** p<0.001 (Dunnett test versus control).

COc1cc2c(cc1OC)N(C)C(=O)CN=C2c1cccc(C(N)=O)c1 [Compound 5a, 3-(7,8-dimethoxy-1-methyl-2-oxo-2,3-dihydro-1H-1,4-benzodiazepin-5-yl)-benzamide]
PDE4 percentage inhibition at 10 μM [1]: 16.2%
inhibition at 10 µM [2]: 17.6%
percentage of time spent in the open arms [3]: spent more time in the open arms
total immobility time [4]: shorter immobility time
time spent in the light compartment [5]: significantly more time in the light compartment
